Assay results taken from the supplement of paper PMC10307832.

Experiments:
Experiment in all cases: relative viability (nuclei count vs DMSO), 5 days (fraction); higher = more cells survive
[1] = compound: CN(C)C[C@@H]1CCn2cc(c3ccccc32)C2=C(C(=O)NC2=O)c2cn(c3ccccc23)CCO1 [Ruboxistaurin] + CCNC(=O)c1noc(-c2cc(C(C)C)c(O)cc2O)c1-c1ccc(CN2CCOCC2)cc1 [Luminespib] (partner 0.01 µM)
Summary of the method: (§1)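 Dosing by pin tool came one day after lung cancer cell lines were seeded in 1536-well plates, using either one drug or a fixed anchor-drug dose plus five library-drug doses (not always all listed) in √10 steps. After 5 days, nuclei were counted on 4× images. Relative viability is treated-well nuclei count divided by vehicle-well nuclei count, and values are medians of duplicate plates.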

[2] = compound: CN(C)C[C@@H]1CCn2cc(c3ccccc32)C2=C(C(=O)NC2=O)c2cn(c3ccccc23)CCO1 [Ruboxistaurin] + COc1cc2c(Oc3ccc(NC(=O)C4(C(=O)Nc5ccc(F)cc5)CC4)cc3F)ccnc2cc1OCCCN1CCOCC1 [Foretinib] (partner 0.25 µM)
Summary of the method: as §1

Ruboxistaurin + OSI-027 = compound: CN(C)C[C@@H]1CCn2cc(c3ccccc32)C2=C(C(=O)NC2=O)c2cn(c3ccccc23)CCO1 [Ruboxistaurin] + COc1cccc2cc(-c3nc([C@H]4CC[C@H](C(=O)O)CC4)n4ncnc(N)c34)[nH]c12 [OSI-027] (partner 0.5 µM)
Summary of the method: as §1

[3] = compound: CN(C)C[C@@H]1CCn2cc(c3ccccc32)C2=C(C(=O)NC2=O)c2cn(c3ccccc23)CCO1 [Ruboxistaurin] + Cc1nc(NC(=O)N2CCC[C@H]2C(N)=O)sc1-c1ccnc(C(C)(C)C(F)(F)F)c1 [Alpelisib] (partner 2 µM)
Summary of the method: as §1

[4] = compound: CN(C)C[C@@H]1CCn2cc(c3ccccc32)C2=C(C(=O)NC2=O)c2cn(c3ccccc23)CCO1 [Ruboxistaurin] + Nc1ncn([C@H]2C[C@H](O)[C@@H](CO)O2)c(=O)n1 [Decitabine] (partner 2 µM)
Summary of the method: as §1

Cell Line	relative viability ([1]; first compound 0.08 µM)	relative viability ([1]; first compound 0.8 µM)	relative viability ([1]; first compound 2.53 µM)	relative viability ([1]; first compound 8 µM)	relative viability ([2]; first compound 0.08 µM)	relative viability ([2]; first compound 0.8 µM)	relative viability ([2]; first compound 2.53 µM)	relative viability ([2]; first compound 8 µM)	relative viability (Ruboxistaurin + OSI-027; first compound 0.08 µM)	relative viability (Ruboxistaurin + OSI-027; first compound 0.8 µM)	relative viability (Ruboxistaurin + OSI-027; first compound 2.53 µM)	relative viability (Ruboxistaurin + OSI-027; first compound 8 µM)	relative viability ([3]; first compound 0.08 µM)	relative viability ([3]; first compound 0.8 µM)	relative viability ([3]; first compound 2.53 µM)	relative viability ([3]; first compound 8 µM)	relative viability ([4]; first compound 0.08 µM)	relative viability ([4]; first compound 0.8 µM)	relative viability ([4]; first compound 2.53 µM)	relative viability ([4]; first compound 8 µM)
SW 1573	0.232	0.208	0.314	0.182	1.15	0.866	1.03	0.762	0.729	0.459	0.541	0.494	0.752	0.688	0.72	0.706	0.454	0.445	0.58	0.487
HCC-15	0.278	0.329	0.32	0.716	1.1	0.927	1.12	1.09	0.701	0.617	0.623	0.582	0.867	0.714	0.909	0.743	0.699	0.576	0.666	0.685
NCI-H2126	0.961	0.893	0.983	0.893	1.14	1.13	1.2	1.12	0.811	0.638	0.776	0.639	0.729	0.713	0.76	0.697	0.586	0.581	0.562	0.552
NCI-H2085	0.53	0.4	0.49	0.42	0.878	0.757	1.28	1.12	0.731	0.521	0.791	0.446	0.996	0.899	0.977	0.997	0.485	0.534	0.67	0.667
BEN	0.418	0.391	0.384	0.179	0.725	0.722	0.712	0.49	0.347	0.31	0.262	0.286	1.06	1.07	0.973	0.787	0.815	0.698	0.724	0.549
NCI-H650	0.841	0.7	0.875	0.938	1.11	1.01	1.06	1.2	0.662	0.49	0.584	0.523	1.17	0.888	1.12	1.12	0.312	0.343	0.296	0.34
LCLC-103H	1.02	0.791	0.934	0.808	0.783	0.612	0.777	0.56	0.46	0.384	0.407	0.357	0.99	0.802	0.826	0.862	0.805	0.648	0.726	0.699
PC-14	0.159	0.144	0.184	0.154	1.01	0.87	1	0.984	1.12	0.721	0.811	0.452	1.03	0.887	0.881	1	0.283	0.203	0.293	0.295
COR-L23	0.799	0.55	0.714	0.632	1.06	0.951	1.11	1.05	0.759	0.637	0.712	0.391	0.804	0.814	0.73	0.695	0.427	0.384	0.467	0.487
NCI-H1915	0.765	0.638	0.72	0.565	1.05	1.03	1.02	0.899	0.645	0.489	0.505	0.363	1.07	1.02	1.03	1.09	0.252	0.262	0.277	0.268
